# Assay results from patent publication US8710082B2, “Benzimidazole inhibition of biofilm formation” (priority 2011, dated 2014).
# Entries after “also recorded” stand apart in the source; their conditions may differ.
# Columns and labels:
# [1] = tested on: P. aeruginosa pre-formed biofilms; test: Dispersal of pre-formed biofilms under flow, P. aeruginosa; format: cell-based, Pseudomonas aeruginosa; conditions: 100 μM added at 24 hours, 3, 6 and 24-hour incubation
# V. cholerae [2] = test: MBEC static crystal-violet biofilm assay, V. cholerae; format: cell-based, Vibrio cholerae; conditions: for inhibition of V. cholerae biofilm development: 100 μM, MBEC crystal-violet assay
# S. aureus = format: cell-based, Staphylococcus aureus; conditions: data not shown
# S. aureus strain Newman [3] = test: Flow-cell biofilm formation (CLSM), S. aureus Newman; format: cell-based, Staphylococcus aureus; conditions: 25 μM, shear conditions
# Shigella boydii = test: MBEC static biofilm assay, S. boydii; format: cell-based; conditions: 100 μM
# Method: (§1) Biofilm formation was measured under both static and flow conditions. For the static condition, we used quantitative crystal violet assay on polystyrene 96-well and MBEC plates (Biosurface Technologies, Bozeman Mont.) as described previously. The MBEC technology is a 96-well plate cover containing 96 polystyrene pegs that sit in the 96 wells of a conventional plate. Briefly, overnight grown cultures were standardized to 0.1 OD595, 200 μL was transferred to the wells of a 96-well polystyrene microtiter plate (Corning, Inc., Corning, N.Y.), and the MBEC lid was placed on top of the wells. Biofilms were grown on the pegs of the lid under shaking conditions for 24 h. The lid was removed and the pegs were gently washed twice with 200 μL of phosphate-buffered saline to remove non adherent cells. Adherent biofilms on the pegs were fixed with 200 μL of 100% ethanol prior to staining for 2 min with 200 μL of 0.41% (wt/vol) crystal violet in 12% ethanol (Protocol Crystal Violet; Biochemical Sciences, Swedesboro, N.J.). […] Quantitative assessment of biofilm formation was obtained by immersing the pegs in sterile polystyrene microtiter plate containing 200 μl of 100% ethanol and incubating at room temperature for 10 min (60) and the absorbance at 595 nm was determined using a SpectraMax M5 microplate spectrophotometer system (Molecular Devices, Sunnyvale, Calif.). […]
# [4] = tested on: phosphodiesterase (PDE) enzyme VieA; format: biochemical
# Text: (§2) Furthermore, we established an in vitro assay to measure the activity of the diguanylate cyclase (DGC) enzyme VC2370 that synthesizes c-di-GMP and the phosphodiesterase (PDE) enzyme VieA that degrades c-di-GMP.
# [5] = tested on: diguanylate cyclase (DGC) enzyme VC2370; format: biochemical
# Text: as §2
# Klebsiella pneumoniae [6] = test: Flow-cell biofilm formation (CLSM), K. pneumoniae; format: cell-based; conditions: continuous flow
# [7] = tested on: K. pneumoniae pre-formed biofilms; test: Dispersal of pre-formed biofilms under flow, K. pneumoniae; format: cell-based, Klebsiella pneumoniae; conditions: 100 μM added at 24 hours, 3, 6 and 24-hour incubation
# VC1673-lux = test: microbe, parasite or virus in culture; conditions: Vibrio cholerae, read-out: IC50 of inhibition of VC1673-lux
# S. aureus strain Newman [8] = test: MBEC static biofilm assay, S. aureus Newman; format: cell-based, Staphylococcus aureus; conditions: 25 μM
# Method: as §1
# CA-MRSA (USA-300) = test: Flow-cell biofilm formation (CLSM), CA-MRSA USA300; format: cell-based, Staphylococcus aureus; conditions: 25 μM, shear conditions
# Erwinia amylovora = test: MBEC static biofilm assay, E. amylovora; format: cell-based; conditions: 100 μM
# Method: as §1
# P. aeruginosa CF-145 [9] = test: MBEC static crystal-violet biofilm assay, P. aeruginosa CF-145; format: cell-based, Pseudomonas aeruginosa
# Method: as §1
# P. aeruginosa CF-145 [10] = test: Flow-cell biofilm formation (CLSM), P. aeruginosa CF-145; format: cell-based, Pseudomonas aeruginosa; conditions: 100 μM, 24 h
# Klebsiella pneumoniae [11] = test: MBEC static biofilm assay, K. pneumoniae; format: cell-based; conditions: ABC-1 between 50 and 100 μM for select pathogens, 24 hours
# Method: as §1
# c-di-GMP in V. cholerae = format: cell-based, Vibrio cholerae
# [12] = tested on: Staphylococcus aureus MRSA strain USA3000; test: MBEC static biofilm assay, S. aureus USA300 (CA-MRSA); format: cell-based; conditions: 25 μM
# Method: as §1
# S. boydii = test: Flow-cell biofilm formation (CLSM), S. boydii; format: cell-based, Shigella boydii; conditions: 100 μM, 48 h
# gram-negative bacteria = test: Impact on growth of gram-negative bacteria; format: cell-based; conditions: concentrations used in biofilm tests; data not shown
# V. cholerae [13] = test: Flow-cell biofilm formation (CLSM), V. cholerae; format: cell-based, Vibrio cholerae; conditions: 10 μM, 24 hours
# Method: For biofilm experiments under flow conditions, biofilms were grown in disposable flow cells (Stovall Life Science, Greensboro, N.C.) as described elsewhere. In brief, the inlet side of the flow cell was connected to a sterile reservoir filled with the appropriate growth medium. The outlet side was connected to a waste reservoir to create a “once-through” flow cell system. Tubing upstream of each individual cell was injected with 0.5 mL of standardized overnight culture of the test strain and the chamber was incubated in upright position at 37° C. for 1 h. Flow was then resumed with flow rate of 0.2 mL/min for V. cholerae, P. aeruginosa, S. boydii, S. aureus and K. pneumoniae, and a flow rate of 0.15 mL/min for E. amylovora. The non-adherent bacteria were eventually flushed by the flow of the medium thereby replacing the volume of the flow cell once every minute. Biofilm formation on the flow cell was imaged both macroscopically and microscopically at 24 h and 48 h. […]
# For CLSM analysis of biofilms, the medium flow was stopped and fluorescent dyes syto-9 and propidium iodide (Molecular Probes, Eugene, Oreg., USA) were injected into the flow cell chamber and incubated for 30 min in the dark. […] Thickness of the biofilm was measured starting from the z-section at the flow-cell/biofilm interface to the z-section at the top of the biofilm surface containing <5% of total biomass. […]
# E. amylovora = test: Flow-cell biofilm formation (CLSM), E. amylovora; format: cell-based, Erwinia amylovora; conditions: 100 μM, continuous flow
# [14] = tested on: c-di-GMP in P. aeruginosa PA01; format: cell-based, Pseudomonas aeruginosa; conditions: 35 μM, data not shown
structure (smiles),measurement,setting,value
"COc1ccc2[nH]c(SCc3ccc(C)cc3)nc2c1 [ABC-1, 5-methoxy-2-[(4-methylbenzyl)sulfanyl]-1H-benzimidazole]",dispersal of pre-formed biofilms,[1],did not confer any significant changes in biofilm architecture
same,inhibition of V. cholerae biofilm development,V. cholerae [2],capable of significantly inhibiting V. cholerae biofilm development
same,IC50,"V. cholerae [2]; Vibrio cholerae, read-out: IC50 to inhibit biofilm formation of V. cholerae",32.3 nM
same,concentration that inhibited the growth of S. aureus,S. aureus,≥ 50 µM
same,biofilm formation under flow,S. aureus strain Newman [3],less surface area coverage and biofilms were present as small patches
same,"inhibition of biofilms, static",Shigella boydii,significantly inhibited biofilms; also recorded: significantly impacted
same,in vitro activity of PDE VieA,[4],no significant impact
same,in vitro activity of DGC VC2370,[5],no significant impact
same,biofilm formation under flow,Klebsiella pneumoniae [6]; 24 hours,inhibited biofilm formation
same,fate of biofilms that did form in the presence of ABC-1,Klebsiella pneumoniae [6]; data not shown,began to disperse beyond 30 hours
same,dispersal of pre-formed biofilms,[7],did not confer any significant changes in biofilm architecture
same,IC50,VC1673-lux,< 10000 nM
same,"inhibition of biofilms, static",S. aureus strain Newman [8],"significantly inhibited biofilms; also recorded: statistically significant (P<0.05), but less robust than observed for most gram-negative pathogens"
same,biofilm formation under flow,CA-MRSA (USA-300),reduced compared to the untreated condition
same,"inhibition of biofilms, static",Erwinia amylovora,significantly inhibited biofilms; also recorded: pronounced decrease
same,"inhibition of biofilms, static","P. aeruginosa CF-145 [9]; ABC-1 between 50 and 100 μM for select pathogens, MBEC static",significantly inhibited biofilms
same,IC50,"P. aeruginosa CF-145 [9]; Pseudomonas aeruginosa, CF145, read-out: IC50 to inhibit biofilm formation of P. aeruginosa",45.9 nM
same,biofilm formation under flow,P. aeruginosa CF-145 [10],greatly reduced biofilm formation
same,"inhibition of biofilms, static",Klebsiella pneumoniae [11],significantly inhibited biofilms; also recorded: inhibited biofilm formation
same,intracellular c-di-GMP,c-di-GMP in V. cholerae,modest reduction
same,"inhibition of biofilms, static",[12],"significantly inhibited biofilms; also recorded: statistically significant (P<0.05), but less robust than observed for most gram-negative pathogens"
same,biofilm formation under flow,S. boydii,greatly reduced biofilm formation
same,inhibition of growth of gram-negative bacteria,gram-negative bacteria,no impact on growth; also recorded: no concentration of ABC-1 showed inhibition of growth
same,biofilm formation under flow,V. cholerae [13],dramatically reduced biofilm formation
same,biofilm development under flow,E. amylovora,pronounced decrease
same,levels of c-di-GMP,[14],no effect
"COc1ccc2[nH]c(SCc3ccc(Cl)cc3)nc2c1 [ABC-2, 2-[(4-chlorobenzyl)thio]-5-methoxy-1H-benzimidazole]",inhibition of V. cholerae biofilm development,V. cholerae [2],capable of significantly inhibiting V. cholerae biofilm development
same,IC50,VC1673-lux,< 10000 nM
